The values below come from patent publication US20150299233A1, “COMPOSITIONS AND METHODS COMPRISING RHENIUM FOR THE TREATMENT OF CANCERS” (Massachusetts Institute of Technology, priority 2014, published 2015).

The term IC50 denotes the concentration needed to halve the response being measured.

The structures appear in SMILES notation.

For assay [1], the system named is DU 145 (prostate carcinoma). Kind of assay: MTT cytotoxicity assay, DU 145 cells. To be noted: Table 2; cisplatin-resistant cell line; 72 h exposure; read-out: IC50 DU 14S prostate carcinoma. It is filed as cell-based, human. (Tetrazolium assays rely on reduction of a dye to a coloured formazan, in cell work by metabolically active cells.)
The test system of assay [2] is MEFs PARP-1+/+ and MEFs PARP-1−/− cells. Kind of assay: Cytotoxicity in MEFs PARP-1+/+ versus PARP-1-/- cells. Format: cell-based, mouse. The settings on record: 72 h, FIG. 3A. As to the method: (PARP-1). PARP-1 is a nuclear enzyme that is involved in DNA repair and transcriptional regulation. DNA damage can trigger PARP-1 activity, resulting in ATP and NAD depletion and bioenergetics- mediated cell death. To determine whether PARP-1 activity is a factor in 1- and 2-mediated cell death, cytotoxicity assays were conducted with wild-type mouse embryonic fibroblast cells (MEFs PARP-1+/+) and the corresponding PARP-1-null cells (MEFs PARP-1−/−). […] Recently, p53 has also been reported to play a role in necroptosis. p53 induces cathepsin Q, a lysosomal protease that cooperates with ROS to execute necrosis. To investigate whether p53 might play a role in 1- and 2-mediated necroptosis, cytotoxicity studies were conducted with HCT116 p53^+/+ nd HCT116 p53^−/− cells.
Cell Cycle Analysis. To gain a more complete understanding of the cellular response evoked, DNA-flow cytometric studies were conducted to determine the effect of 1 and 2 on the cell cycle. A549 cells were treated with 1 or 2 (2 μM), and the cell cycle was determined over the course of 72 h. […] Upon further incubation (72 h), large populations of cell debris were detected (32%), indicative of cell death. […]
Cytotoxicity MTT Assay. […] The absorbance of the solution wells was read at 550 nm. Absorbance values were normalized to DMSO-containing control wells and plotted as the concentration of test compound versus % cell viability. […]

Assay [3] deals with A549 cells. Kind of assay: Cell cycle analysis, DNA-flow cytometry. Format: cell-based, human. The settings on record: 2 μM. As to the method: Cell Cycle Analysis. To gain a more complete understanding of the cellular response evoked, DNA-flow cytometric studies were conducted to determine the effect of 1 and 2 on the cell cycle. A549 cells were treated with 1 or 2 (2 μM), and the cell cycle was determined over the course of 72 h. […] Upon further incubation (72 h), large populations of cell debris were detected (32%), indicative of cell death. […] G1-phase cell cycle arrest followed by immediate cell death is characteristic of programmed necrosis.
Cell Cycle. In order to monitor the cell cycle, flow cytometry studies were carried out. A549 cells (1.5×10^6 cells/well) grown in six-well plates were incubated with and without the test compounds for 24, 48, and 72 h at 37° C. Cells were harvested from adherent cultures by trypsinization and combined with all detached cells from the incubation medium to assess total cell viability. Following centrifugation at 1000 rpm for 5 min, cells were washed with PBS and then fixed with 70% ethanol in PBS. Fixed cells were collected by centrifugation at 2500 rpm for 3 min, washed with PBS, and centrifuged as before. Cellular pellets were resuspended in 50 μg/mL PI (Sigma) in PBS for nucleic acids staining and treated with 100 µg/mL RNaseA (Sigma). DNA content was measured on a FACSCalibur-HTS flow cytometer (BD Biosciences) using laser excitation at 488 nm, and 20 000 events per sample were acquired. Cell cycle profiles were analyzed using the ModFit software.
For orientation: A flow cytometer gives signals particle by particle.

Assay [4] concerns HT-29 (colorectal adenocarcinoma). Kind of assay: MTT cytotoxicity assay, HT-29 cells. To be noted: for IC50: Table 2, cisplatin-resistant cell line, 72 h exposure; for IC50 lower in HT-29 cells than IC50 of cisplatin: ratio to cisplatin. Format: cell-based, human.
Experimental: Cytotoxicity MTT Assay. […] Cells (2×10^3 cells/well) were seeded in a 96-well plate. […] The final concentration of DMSO in each well was 0.5%, and this amount was also present in the untreated control. After 72 h, the medium was removed, 200 μL of a 0.4 mg/mL solution of MTT in DMEM, RPMI, or McCoy's 5A was added, and the plate was incubated for an additional 1-2 h. The DMEM/MTT, RPMI/MTT, or McCoy's 5A/MTT mixture was aspirated, and 200 μL of DMSO was added to dissolve the resulting purple formazan crystals. The absorbance of the solution wells was read at 550 nm. Absorbance values were normalized to DMSO-containing control wells and plotted as the concentration of test compound versus % cell viability. IC50 values were interpolated from the resulting dose-dependent curves. The reported IC50 values are the average from at least three independent experiments, each of which consisted of six replicates per concentration level.
In another assay the test system is NTERA-2. Kind of assay: MTT cytotoxicity assay, NTERA-2 cells. To be noted: Table 1; 72 h exposure; ± standard deviation; read-out: IC50 NTERA-2 testis carcinoma. Format: cell-based, human.
The test system of assay [5] is A549 cells. Kind of assay: JC-1 mitochondrial membrane potential assay. Format: cell-based, human. To be noted: for JC-1 green fluorescence versus untreated cells (mitochondrial membrane disruption): 1, 2, shikonin 20 μM for 12 h, CCCP 5 μM for 12 h. As to the method: The effect of 1 and 2 on the mitochondrial membrane potential was assessed by flow cytometry, using the JC-1 assay (5,5′,6,6′-tetrachloro-1,1′,3,3′-tetraethylbenzimidazolyl carbo-cyanine iodide). JC-1 is a cationic lipophilic dye that localizes in the mitochondria of healthy cells as red-emitting aggregates. If the mitochondrial membrane potential is disrupted, JC-1 forms green-emitting monomers. […] This could explain the high residual toxicity (>1 μM) observed for A549 cells co-incubated with the rhenium complexes (1 and 2) and necrostatin-1 (FIG. 1B).
JC-1 Assay. The JC-1 Mitochondrial Membrane Potential Assay Kit (Cayman) was used. The manufacturer's protocol was followed to carry out this experiment. Briefly, to untreated and treated A549 cells (1.5×10^6 cells/well) grown in six-well plates was added the JC-1 staining solution (100 μL/mL of cell media). The cells were incubated for 30 min, harvested, and analyzed by using the FACSCalibur-HTS flow cytometer (BD Biosciences) (20 000 events per sample were acquired).The FL1 channel was used to assess mitochondrial depolarization. Cell populations were analyzed using the FlowJo software (Tree Star).

The subject of assay [6] is PC-3 (prostate adenocarcinoma). Kind of assay: MTT cytotoxicity assay, PC-3 cells. Format: cell-based, human. The settings on record: Table 2; cisplatin-resistant cell line; 72 h exposure.

For the molecule `C[O][Re-2]1(=[O])([Cl])([Cl])[n+]2cc(C)c(C)c3ccc4c(C)c(C)c[n+]1c4c32` [Compound 2, [ReO(OMe)(3,4,7,8-tetramethyl-1,10-phenanthroline)Cl2]], the IC50 in assay [1] came to 1370 ± 84 nM; in assay [4] it was 95 ± 20 nM; with NTERA-2 it was 255 ± 35 nM; in assay [6], 780 ± 10 nM. Moreover, the “IC50 in MEFs PARP-1+/+ compared with MEFs PARP-1−/−” value in assay [2] was “similar”. For the same molecule, the “effect on cell cycle after 24 h” value in the assay on A549 cells [3] is given as “stalled the cell cycle at the G1 phase”. In addition, the “population of cell debris, 48 h” value in the assay on A549 cells [3] (48 h) was 26%. Besides, the “population of cell debris, 72 h” value in the assay on A549 cells [3] is reported as 38%. The “IC50 lower in HT-29 cells than IC50 of cisplatin” value in assay [4] is 300 fold. The “induced mitochondrial membrane depletion with necrostatin-1” value in the assay on A549 cells [5] is recorded as “amplified”. Besides, the “JC-1 green fluorescence versus untreated cells (mitochondrial membrane disruption)” value with A549 cells [5] was “increased green fluorescence”.

In the case of `C[O][Re](=[O])([Cl])[Cl].c1ccc(-c2ccnc3c2ccc2c(-c4ccccc4)ccnc23)cc1` [Compound 1, [ReO(OMe)(4,7-diphenyl-1,10-phenanthroline)-Cl2]], the IC50 in assay [1] was found to be 2840 ± 381 nM; in assay [4] it was 85 ± 11 nM; in the assay on NTERA-2, 230 ± 28 nM; in assay [6], 270 ± 14 nM. Besides, the “IC50 in MEFs PARP-1+/+ compared with MEFs PARP-1−/−” value in assay [2] is recorded as “similar”. The “effect on cell cycle after 24 h” value in the assay with A549 cells [3] is “stalled the cell cycle at the G1 phase”. The “effect on cell cycle after 48 h” value with A549 cells [3] (48 h) is “remained stalled at the G1 phase”. Further, in the assay on A549 cells [3], the “population of cell debris, 72 h” value is given as 32%. In assay [4], the “IC50 lower in HT-29 cells than IC50 of cisplatin” value came to 300 fold. The “induced mitochondrial membrane depletion with necrostatin-1” value in the assay with A549 cells [5] is “amplified”. Moreover, the “JC-1 green fluorescence versus untreated cells (mitochondrial membrane disruption)” value in the assay with A549 cells [5] was “increased green fluorescence”.
